{"source": "patent US10570140B2", "about": "“Selective inhibitors of protein arginine methyltransferase 5 (PRMT5)” (Prelude Therapeutics, Incorporated, priority 2017, dated 2020)", "data": [{"tested_on": "sDMA", "experiment": "Western blot for symmetric di-methyl arginine (sDMA) IC50 in Granta cells", "type": "cell-based", "conditions": "Homo sapiens, 72 h; Granta-519 cell line, 3 days", "units": {"IC50": "nM"}, "values": [{"smiles": "Nc1ccc2ccc(OC[C@H]3O[C@@H](n4ccc5c(N)ncnc54)[C@H](O)[C@@]3(O)C(F)(F)F)cc2n1", "note": "[Example 2, (2R,3S,4R,5R)-5-(4-amino-7H-pyrrolo[2,3-d]pyrimidin-7-yl)-2-(((2-aminoquinolin-7-yl)oxy)methyl)-3-(trifluoromethyl)tetrahydrofuran-3,4-diol]", "IC50": 21}, {"smiles": "C#C[C@@]1(O)[C@@H](COc2ccc3ccc(N)nc3c2)O[C@@H](n2ccc3c(N)ncnc32)[C@@H]1O", "note": "[Example 3, (2R,3S,4R,5R)-5-(4-amino-7H-pyrrolo[2,3-d]pyrimidin-7-yl)-2-(((2-aminoquinolin-7-yl)oxy)methyl)-3-ethynyltetrahydrofuran-3,4-diol]", "IC50": 44.2}]}, {"target": "PRMT5/MEP50 complex (Homo sapiens (Human), UniProt O14744)", "sequence (O14744 whole entry)": "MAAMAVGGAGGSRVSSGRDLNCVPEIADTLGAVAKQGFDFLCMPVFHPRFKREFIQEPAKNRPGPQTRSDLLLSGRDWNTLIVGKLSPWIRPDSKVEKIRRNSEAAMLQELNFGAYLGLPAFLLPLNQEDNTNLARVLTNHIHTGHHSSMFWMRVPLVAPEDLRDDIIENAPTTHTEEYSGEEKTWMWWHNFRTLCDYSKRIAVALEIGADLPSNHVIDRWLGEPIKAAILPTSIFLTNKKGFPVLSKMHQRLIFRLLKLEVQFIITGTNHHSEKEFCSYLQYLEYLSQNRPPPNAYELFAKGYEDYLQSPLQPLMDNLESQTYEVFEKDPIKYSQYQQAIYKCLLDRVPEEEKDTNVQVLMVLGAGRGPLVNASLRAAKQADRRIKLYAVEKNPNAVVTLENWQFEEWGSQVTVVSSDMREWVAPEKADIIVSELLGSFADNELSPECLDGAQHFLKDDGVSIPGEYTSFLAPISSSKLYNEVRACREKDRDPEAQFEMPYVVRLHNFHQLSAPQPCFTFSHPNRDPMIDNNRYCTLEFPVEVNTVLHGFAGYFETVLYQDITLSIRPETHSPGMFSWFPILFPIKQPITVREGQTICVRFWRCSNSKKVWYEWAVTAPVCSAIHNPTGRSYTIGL", "sequence (Q9BQA1 whole entry partner)": "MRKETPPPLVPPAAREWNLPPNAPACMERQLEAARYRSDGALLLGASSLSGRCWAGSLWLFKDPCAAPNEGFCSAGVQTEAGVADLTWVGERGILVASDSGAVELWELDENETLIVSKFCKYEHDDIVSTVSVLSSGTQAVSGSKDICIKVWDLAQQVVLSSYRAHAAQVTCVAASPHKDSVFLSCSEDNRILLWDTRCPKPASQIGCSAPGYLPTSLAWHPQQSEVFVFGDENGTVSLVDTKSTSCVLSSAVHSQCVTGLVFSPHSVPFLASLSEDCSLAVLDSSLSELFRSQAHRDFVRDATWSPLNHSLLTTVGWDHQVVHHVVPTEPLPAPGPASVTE", "experiment": "PRMT5 biochemical assay (3H-SAM filter plate, histone H2A substrate)", "conditions": "not given", "experimental": "(§1) Biochemical Assay Protocol\n(§2) Compounds were solubilized and 3-fold diluted in 100% DMSO. […] Standard reactions were performed in a total volume of 50 μl in assay buffer, with histone H2A (5 μM final) as substrate. To this was added the PRMT5/MEP50 complex diluted to provide a final assay concentration of 5 nM and the compounds were allowed to preincubate for 15 to 20 minutes at room temperature. The reaction was initiated by adding S-[3H-methyl]-adenosyl-L-methionine (PerkinElmer) to final concentration of 1 μM. Following a 60 minutes incubation at 30° C., the reaction was stopped by adding 100 μL of 20% TCA. Each reaction was spotted onto filter plate (MultiScreen FB Filter Plate, Millipore), and washed 5 times with PBS buffer, Scintillation fluid was added to the filter plate and read in a scintillation counter. IC50 values were determined by fitting the data to the standard 4 parameters with Hill Slope using GraphPad Prism software.", "units": {"IC50": "nM"}, "values": [{"smiles": "CO/N=c1\\[nH]cnc2c1ccn2[C@@H]1O[C@H](COc2ccc3ccc(N)nc3c2)[C@@](C)(O)[C@H]1O", "note": "[Example 32, 7-((2R,3R,4S,5R)-5-(((2-aminoquinolin-7-yl)oxy)methyl)-3,4-dihydroxy-4-methyltetrahydrofuran-2-yl)-3,7-dihydro-4H-pyrrolo[2,3-d]pyrimidin-4-one O-methyloxime]", "IC50": 10}]}, {"target": "PRMT5/MEP50 complex (Homo sapiens (Human), UniProt O14744)", "experiment": "PRMT5 biochemical assay (3H-SAM filter plate, histone H2A substrate)", "conditions": "PRMT5/MEP50 5 nM, histone H2A 5 μM, SAM 1 μM; read-out: PRMT5 IC50", "experimental": "as §1, §2", "units": {"IC50": "nM"}, "values": [{"smiles": "Nc1ccc2ccc(OC[C@H]3O[C@@H](n4ccc5c(N)ncnc54)[C@H](O)[C@@]3(O)C(F)(F)F)cc2n1", "note": "[Example 2, (2R,3S,4R,5R)-5-(4-amino-7H-pyrrolo[2,3-d]pyrimidin-7-yl)-2-(((2-aminoquinolin-7-yl)oxy)methyl)-3-(trifluoromethyl)tetrahydrofuran-3,4-diol]", "IC50": 1.9}, {"smiles": "C#C[C@@]1(O)[C@@H](COc2ccc3ccc(N)nc3c2)O[C@@H](n2ccc3c(N)ncnc32)[C@@H]1O", "note": "[Example 3, (2R,3S,4R,5R)-5-(4-amino-7H-pyrrolo[2,3-d]pyrimidin-7-yl)-2-(((2-aminoquinolin-7-yl)oxy)methyl)-3-ethynyltetrahydrofuran-3,4-diol]", "IC50": 1.6}, {"smiles": "C=C[C@@]1(O)[C@@H](COc2ccc3ccc(N)nc3c2)O[C@@H](n2ccc3c(N)ncnc32)[C@@H]1O", "note": "[Example 4, (2R,3S,4R,5R)-5-(4-amino-7H-pyrrolo[2,3-d]pyrimidin-7-yl)-2-(((2-aminoquinolin-7-yl)oxy)methyl)-3-vinyltetrahydrofuran-3,4-diol]", "IC50": 8.7}, {"smiles": "Cc1ncnc2c1ccn2[C@@H]1O[C@H](COc2ccc3ccc(N)nc3c2)[C@@](C)(O)[C@H]1O", "note": "[Example 10, (2R,3S,4R,5R)-2-(((2-aminoquinolin-7-yl)oxy)methyl)-3-methyl-5-(4-methyl-7H-pyrrolo[2,3-d]pyrimidin-7-yl)tetrahydrofuran-3,4-diol]", "IC50": 1.1}, {"smiles": "COC[C@H]1O[C@@H](n2ccc3c(N)ncnc32)[C@H](O)[C@]1(C)O", "note": "[Example 19, (2R,3S,4R,5R)-5-(4-amino-7H-pyrrolo[2,3-d]pyrimidin-7-yl)-2-(methoxymethyl)-3-methyltetrahydrofuran-3,4-diol]", "IC50": 1440}, {"smiles": "C[C@@]1(O)[C@@H](COc2ccccc2)O[C@@H](n2ccc3c(N)ncnc32)[C@@H]1O", "note": "[Example 20, (2R,3S,4R,5R)-5-(4-amino-7H-pyrrolo[2,3-d]pyrimidin-7-yl)-3-methyl-2-(phenoxymethyl)tetrahydrofuran-3,4-diol]", "IC50": 14300}, {"smiles": "C[C@@]1(O)[C@@H](COc2cccc(NC(N)=O)c2)O[C@@H](n2ccc3c(N)ncnc32)[C@@H]1O", "note": "[Example 21, 1-(3-(((2R,3S,4R,5R)-5-(4-amino-7H-pyrrolo[2,3-d]pyrimidin-7-yl)-3,4-dihydroxy-3-methyltetrahydrofuran-2-yl)methoxy)phenyl)urea]", "IC50": 7840}, {"smiles": "CO/N=c1/nc[nH]c2c1ccn2[C@@H]1O[C@H]([C@H](O)c2ccc(Cl)c(Cl)c2)[C@@](C)(O)[C@H]1O", "note": "[Example 37, 7-((2R,3R,4S,5R)-5-((R)-(3,4-dichlorophenyl)(hydroxy)methyl)-3,4-dihydroxy-4-methyltetrahydrofuran-2-yl)-1,7-dihydro-4H-pyrrolo[2,3-d]pyrimidin-4-one O-methyl oxime]", "IC50": 428}, {"smiles": "CNc1ncnc2c1ccn2[C@@H]1O[C@H](CSC)[C@@](C)(O)[C@H]1O", "note": "[Example 40, (2S,3S,4R,5R)-3-methyl-5-(4-(methylamino)-7H-pyrrolo[2,3-d]pyrimidin-7-yl)-2-((methylthio)methyl)tetrahydrofuran-3,4-diol]", "IC50": 14100}, {"smiles": "C[C@@]1(O)[C@@H](COc2cccc(NC(N)=O)c2)O[C@@H](n2ccc3c(Cl)ncnc32)[C@@H]1O", "note": "[Example 41, 1-(3-(((2R,3S,4R,5R)-5-(4-chloro-7H-pyrrolo[2,3-d]pyrimidin-7-yl)-3,4-dihydroxy-3-methyltetrahydrofuran-2-yl)methoxy)phenyl)urea]", "IC50": 200000}, {"smiles": "C[C@@]1(O)[C@@H](C(=O)Nc2cccc(CN)c2)O[C@@H](n2ccc3c(Cl)ncnc32)[C@@H]1O", "note": "[Example 42, (2S,3S,4R,5R)-N-(3-(aminomethyl)phenyl)-5-(4-chloro-7H-pyrrolo[2,3-d]pyrimidin-7-yl)-3,4-dihydroxy-3-methyltetrahydrofuran-2-carboxamide]", "IC50": 9100}, {"smiles": "C[C@@]1(O)[C@@H](C(=O)Nc2cccc(CN)c2)O[C@@H](n2ccc3c(N)ncnc32)[C@@H]1O", "note": "[Example 43, (2S,3S,4R,5R)-5-(4-amino-7H-pyrrolo[2,3-d]pyrimidin-7-yl)-N-(3-(aminomethyl)phenyl)-3,4-dihydroxy-3-methyltetrahydrofuran-2-carboxamide]", "IC50": 825}, {"smiles": "CO/N=c1\\[nH]cnc2c1ccn2[C@@H]1O[C@H]([C@H](O)c2ccc(Cl)cc2)[C@@](C)(O)[C@H]1O", "note": "[Example 44, (Z)-7-((2R,3R,4S,5R)-5-((R)-(4-chlorophenyl)(hydroxy)methyl)-3,4-dihydroxy-4-methyltetrahydrofuran-2-yl)-3,7-dihydro-4H-pyrrolo[2,3-d]pyrimidin-4-one O-methyl oxime]", "IC50": 3480}, {"smiles": "CO/N=c1\\[nH]cnc2c1ccn2[C@@H]1O[C@H](COc2ccc3ccc(NOC)nc3c2)[C@@](C)(O)[C@H]1O", "note": "[Example 45, (Z)-7-((2R,3R,4S,5R)-3,4-dihydroxy-5-(((2-(methoxyamino)quinolin-7-yl)oxy)methyl)-4-methyltetrahydrofuran-2-yl)-3,7-dihydro-4H-pyrrolo[2,3-d]pyrimidin-4-one O-methyl oxime]", "IC50": 11500}, {"smiles": "C[C@@]1(O)[C@@H]([C@H](O)c2ccc(Cl)cc2)O[C@@H](n2ccc3/c(=N/O)[nH]cnc32)[C@@H]1O", "note": "[Example 46, (Z)-7-((2R,3R,4S,5R)-5-((R)-(4-chlorophenyl)(hydroxy)methyl)-3,4-dihydroxy-4-methyltetrahydrofuran-2-yl)-3,7-dihydro-4H-pyrrolo[2,3-d]pyrimidin-4-one oxime]", "IC50": 92}, {"smiles": "C[C@@]1(O)[C@@H](Cc2ccc3c(c2)OCO3)O[C@@H](n2ccc3c(N)ncnc32)[C@@H]1O", "note": "[Example 49, (2R,3S,4R,5R)-5-(4-amino-7H-pyrrolo[2,3-d]pyrimidin-7-yl)-2-(benzo[d][1,3]dioxol-5-ylmethyl)-3-methyltetrahydrofuran-3,4-diol]", "IC50": 229}, {"smiles": "C[C@@]1(O)[C@@H](Cc2ccc(Cl)c(Cl)c2)O[C@@H](n2ccc3cncnc32)[C@@H]1O", "note": "[Example 51, (2R,3S,4R,5R)-2-(3,4-dichlorobenzyl)-3-methyl-5-(7H-pyrrolo[2,3-d]pyrimidin-7-yl)tetrahydrofuran-3,4-diol]", "IC50": 404}, {"smiles": "C[C@@]1(O)[C@@H](COc2ccc3cccnc3c2)O[C@@H](n2ccc3c(N)ncnc32)[C@@H]1O", "note": "[Example 53, (2R,3S,4R,5R)-5-(4-amino-7H-pyrrolo[2,3-d]pyrimidin-7-yl)-3-methyl-2-((quinolin-7-yloxy)methyl)tetrahydrofuran-3,4-diol]", "IC50": 5.8}, {"smiles": "Cc1ncnc2c1ccn2[C@@H]1O[C@H](COc2ccc3cccnc3c2)[C@@](C)(O)[C@H]1O", "note": "[Example 54, (2R,3S,4R,5R)-3-methyl-5-(4-methyl-7H-pyrrolo[2,3-d]pyrimidin-7-yl)-2-((quinolin-7-yloxy)methyl)tetrahydrofuran-3,4-diol]", "IC50": 198}, {"smiles": "Cc1ncnc2c1ccn2[C@@H]1O[C@H]([C@H](O)c2ccc(C(C)C)cc2)[C@@](C)(O)[C@H]1O", "note": "[Example 59, (2R,3S,4R,5R)-2-((R)-hydroxy(4-isopropylphenyl)methyl)-3-methyl-5-(4-methyl-7H-pyrrolo[2,3-d]pyrimidin-7-yl)tetrahydrofuran-3,4-diol]", "IC50": 399}, {"smiles": "Cc1ncnc2c1ccn2[C@@H]1O[C@H]([C@H](O)c2ccc(OC(F)(F)F)cc2)[C@@](C)(O)[C@H]1O", "note": "[Example 60, (2R,3S,4R,5R)-2-((R)-hydroxy(4-(trifluoromethoxy)phenyl)methyl)-3-methyl-5-(4-methyl-7H-pyrrolo[2,3-d]pyrimidin-7-yl)tetrahydrofuran-3,4-diol]", "IC50": 368}, {"smiles": "Cc1ncnc2c1ccn2[C@@H]1O[C@H]([C@H](O)c2ccc(F)c(C(F)(F)F)c2)[C@@](C)(O)[C@H]1O", "note": "[Example 61, (2R,3S,4R,5R)-2-((R)-(4-fluoro-3-(trifluorometh-yl)phenyl)(hydroxy)methyl)-3-methyl-5-(4-methyl-7H-pyrrolo[2,3-d]pyrimidin-7-yl)tetrahydrofuran-3,4-diol]", "IC50": 16}, {"smiles": "Cc1ncnc2c1ccn2[C@@H]1O[C@H](Cc2ccc(Cl)cc2CO)[C@@](C)(O)[C@H]1O", "note": "[Example 64, (2R,3S,4R,5R)-2-(4-chloro-2-(hydroxymethyl)benzyl)-3-methyl-5-(4-methyl-7H-pyrrolo[2,3-d]pyrimidin-7-yl)tetrahydrofuran-3,4-diol]", "IC50": 1610}, {"smiles": "C[C@@]1(O)[C@@H](Cc2ccc(Cl)cc2CO)O[C@@H](n2ccc3c(N)ncnc32)[C@@H]1O", "note": "[Example 65, (2R,3S,4R,5R)-5-(4-amino-7H-pyrrolo[2,3-d]pyrimidin-7-yl)-2-(4-chloro-2-(hydroxymethyl)benzyl)-3-methyltetrahydrofuran-3,4-diol]", "IC50": 413}, {"smiles": "Cc1cnc2cc(OC[C@H]3O[C@@H](n4ccc5c(N)ncnc54)[C@H](O)[C@]3(C)O)ccn12", "note": "[Example 68, (2R,3S,4R,5R)-5-(4-amino-7H-pyrrolo[2,3-d]pyrimidin-7-yl)-3-methyl-2-(((3-methylimidazo[1,2-a]pyridin-7-yl)oxy)methyl)tetrahydrofuran-3,4-diol]", "IC50": 0.9}]}]}
